Source: US20230293404A1, “Compositions Comprising Natural Polymers and One or More (Bio)-Alkanediols” (Symrise AG, priority 2020, published 2023)

How the values were obtained:
[1] = test system: microbial load of natural polymers; assay: Microbial load of mixtures of natural polymers with alkanediols (plating, CFU count); type: cell-based, bacteria
Method: The following tests were performed to show the influence of different alkanediols on the microbial load of natural polymers.
A selection of natural polymers as specified in Table 1 was systematically analyzed in combination with different 1,2-alkanediols and 2,3-alkanediols (0.5%). The polymers were chosen to be representative from different polymer classes:
A mixture of the natural polymer (concentration as recommended by supplier) with water and 1,2-alkanediol (0.5%) or 2,3-alkanediol (0.5%) or a mixture of 1,2-alkanediol and 2,3-alkanediol (0.5% final concentration) was prepared, as representative of a cold formulation preparation processes, and directly sampled for determination of microbial load. Additionally, the mixtures were stored at 40° C. and again sampled for microbial load after 2 days and 7 days.
The microbial load of the mixtures was determined by plating 1000 μl (or respective dilutions of the material) on an agar plate based on universal bacterial growth medium (Caseinpepton-Sojamehlpepton-Bouillon, Merck 1.05459+Agar No. 1, Oxoid LP0011). The plates were then incubated at 37° C. for 5 days and then photo documented. In parallel, bacterial colonies were counted (CFU—colony forming units per ml).

[2] = Physical state of alkanediols and alkanediol mixtures at RTP; type: physicochemical; details: at RTP (room temperature, normal pressure); FIG. 3 and FIG. 4
From the text: The term “liquid alkanediol” within the context of the present invention means an alkanediol component which is liquid at room or ambient temperature and under normal pressure, i.e. standard RTP conditions.
FIG. 3 is a photograph showing from left to right samples of the liquid 1,2-pentanediol, 1,2-hexanediol, 1,2-heptanediol, 2,3-heptanediol, 2,3-octanediol and 2,3-undecanediol in comparison to the solid 1,2-octanediol, 1,2-undecanediol, 1,2-nonanediol and the liquid 2,3-nonanediol. The first six alkanediols are liquid at RTP, whereas 1,2-octanediol, 1,2-nonanediol and 1,2-undecanediol are solid substances at RTP; 2,3-nonanediol is also liquid at RTP.
FIG. 4 is a representative photograph of samples of mixtures of 1,2-alkanediols with the respective 2,3-alkanediol. All mixtures are liquid. They are shown in the following order: 1,2-heptanediol (95%)+2,3-heptanediol (5%), 1,2-octanediol (95%)+2,3-octanediol (5%), and 1,2-nonanediol (95%)+2,3-nonanediol (5%).

[3] = Maximum solubility of alkanediols in water (visual assessment); type: physicochemical; details: assessed at ambient temperature after 24 h storage at 5° C.; visual observation
From the text: The water solubility of a substance is the saturation mass concentration of the substance in water at a given temperature. The determination of the solubility in water relates to essentially pure substances which are stable in water and not volatile.
For the determination of the maximum water solubility of an alkanediol, water and different concentrations of the respective alkanediol were blended by stirring. […] The determination of whether the alkanediol has dissolved in water is based entirely on visual observation.

CCCCC(O)CO (centres unmarked) [1,2-hexanediol]
Bacterial load (colony forming units) ([1]; Covathick (2009, cellulose 0.5%) in water + 0.5% 1,2-alkanediol, 2 days storage at 40° C.): 0 CFU per ml | Bacterial load (colony forming units) ([1]; Covathick (2009, cellulose 0.5%) in water + 0.5% 1,2-alkanediol, 7 days storage at 40° C.): >13 CFU per ml | Bacterial load (colony forming units) ([1]; Covathick (2009, cellulose 0.5%) in water + 0.5% 1,2-alkanediol, fresh): 3 CFU per ml | Bacterial load (colony forming units) ([1]; Genuvisco (CG-131, carrageenan 0.5%) in water + 0.5% 1,2-alkanediol, 7 days storage at 40° C.): 0 CFU per ml | Bacterial load (colony forming units) ([1]; Genuvisco (CG-131, carrageenan 0.5%) in water + 0.5% 1,2-alkanediol, fresh): 3 CFU per ml | Bacterial load (colony forming units) ([1]; Nativacare (5600, corn starch 3%) in water + 0.5% 1,2-alkanediol, 2 days storage at 40° C.): 0 CFU per ml | Bacterial load (colony forming units) ([1]; Nativacare (5600, corn starch 3%) in water + 0.5% 1,2-alkanediol, 7 days storage at 40° C.): 0 CFU per ml | Bacterial load (colony forming units) ([1]; Nativacare (5600, corn starch 3%) in water + 0.5% 1,2-alkanediol, fresh): 1 CFU per ml | Bacterial load (colony forming units) ([1]; Polycos-N 75 (guar gum 0.5%) in water + 0.5% 1,2-alkanediol, 2 days storage at 40° C.): 19 CFU per ml | Bacterial load (colony forming units) ([1]; Polycos-N 75 (guar gum 0.5%) in water + 0.5% 1,2-alkanediol, 7 days storage at 40° C.): 2 CFU per ml | Bacterial load (colony forming units) ([1]; Polycos-N 75 (guar gum 0.5%) in water + 0.5% 1,2-alkanediol, fresh): 9 CFU per ml | Bacterial load (colony forming units) ([1]; Xanthan Gum (Rheocare XGN 0.5%) in water + 0.5% 1,2-alkanediol, 2 days storage at 40° C.): 1 CFU per ml | Bacterial load (colony forming units) ([1]; Xanthan Gum (Rheocare XGN 0.5%) in water + 0.5% 1,2-alkanediol, fresh): 7 CFU per ml | Physical state [2]: liquid | Maximum solubility in water [3]: 50 % by weight

CCCCCC(O)C(C)O (centres unmarked) [2,3-octanediol]
Bacterial load (colony forming units) ([1]; Covathick (0.5%) in water + 0.5% 2,3-alkanediol, 2 days storage at 40° C.): 0 CFU per mL | Bacterial load (colony forming units) ([1]; Covathick (0.5%) in water + 0.5% 2,3-alkanediol, 7 days storage at 40° C.): 0 CFU per mL | Bacterial load (colony forming units) ([1]; Covathick (0.5%) in water + 0.5% 2,3-alkanediol, fresh): 4 CFU per mL | Bacterial load (colony forming units) ([1]; Genuvisco (0.5%) in water + 0.5% 2,3-alkanediol, 2 days storage at 40° C.): 0 CFU per mL | Bacterial load (colony forming units) ([1]; Genuvisco (0.5%) in water + 0.5% 2,3-alkanediol, 7 days storage at 40° C.): 0 CFU per mL | Bacterial load (colony forming units) ([1]; Genuvisco (0.5%) in water + 0.5% 2,3-alkanediol, fresh): 5 CFU per mL | Bacterial load (colony forming units) ([1]; Polycos-N 75 (0.5%) in water + 0.5% 2,3-alkanediol, 2 days storage at 40° C.): 0 CFU per mL | Bacterial load (colony forming units) ([1]; Polycos-N 75 (0.5%) in water + 0.5% 2,3-alkanediol, 7 days storage at 40° C.): 0 CFU per mL | Bacterial load (colony forming units) ([1]; Polycos-N 75 (0.5%) in water + 0.5% 2,3-alkanediol, fresh): 1 CFU per mL | Bacterial load (colony forming units) ([1]; Xanthan Gum (0.5%) in water + 0.5% 2,3-alkanediol, 2 days storage at 40° C.): 0 CFU per mL | Bacterial load (colony forming units) ([1]; Xanthan Gum (0.5%) in water + 0.5% 2,3-alkanediol, 7 days storage at 40° C.): 0 CFU per mL | Effect on the microbial load of the natural polymer solutions (in words) ([1]; directly after preparation of the mixtures as well as after 7 days storage, Table 3): superior antimicrobial activity | Physical state [2]: liquid | Maximum solubility in water [3]: 1.5 % by weight
